Measured values as given in patent US10287530B2, “Surfactants based on monounsaturated fatty alcohol derivatives” (priority 2013, dated 2019).
“And” between values parts separate entries of the source, which are not always exact repeats. Equal entries are not always repeated. Where two headings read alike, the source gives them in different places.

Tests used:
[1] = format: physicochemical; details: for Rating: overall, versus control
Method: Surfactant candidates for water soluble herbicide applications are examined as a replacement for the anionic, nonionic, or anionic/nonionic blend portion and compared to a known industry adjuvant standard for use in paraquat, a water soluble herbicide concentrate formulation. A standard dilution test is conducted whereby the concentrates are diluted in water to determine if solubility is complete.
A known industry paraquat adjuvant (2.8 g) is added and vigorously mixed for 30 s. Deionized water (8.07 g) is added, and mixing resumes for 30 s. […] The cylinder is stoppered and inverted ten times. Solubility is recorded as complete or incomplete. Cylinders are allowed to stand and the amount (in mL) and type of separation are recorded after 30 min., 1 h, 2 h, and 24 h. Results of the solubility testing appear in Table 4 below.
An eight to ten mole alkyl phenol ethoxylate surfactant (0.7 g) is added and vigorously mixed for 30 s. Test sample (0.7 g) is added and mixing resumes for 30 s. Deionized water (4.03 g) is added, and mixing resumes for 30 s.
Test sample (0.7 g) is added and vigorously mixed for 30 s. Sodium linear alkylbenzene sulfonate (“NaLAS,” 0.7 g) is added and mixing resumes for 30 s. Deionized water (4.03 g) is added, and mixing resumes for 30 s.
Test sample (1.4 g) is added and vigorously mixed for 30 s. Deionized water (4.03 g) is added, and mixing resumes for 30 s.

[2] = Surfactant phase behavior study by cross-polarized microscopy; format: physicochemical; details: in deionized water, room temperature (20-22° C.); boundaries are estimates (±5%)
Method: Phase behavior is observed using an Olympus BH-2 cross-polarized microscope at 100-400× and room temperature (20° C. to 22° C.). The monounsaturated C11 alcohol derivatives (sulfates, ethoxylate sulfates, and alcohol ethoxylates) are compared with their saturated analogs. Samples are prepared by diluting the most concentrated product gradually with deionized water. When the surfactant concentration approaches a phase transition, the concentration is varied at 2-4% intervals to estimate the phase boundary. The actives level reported in Table 6 for each phase boundary is within ±5% of the true boundary. Samples are loaded between a microscope slide and cover glass and are allowed to equilibrate before observation. Microscopic texture is analyzed and used to determine the phase. For some samples, an AR 2000 rheometer (TA Instruments) is used to measure viscosity at 25° C. to further verify phase behavior.

[3] = system: zein, yellow corn (maize) protein
Method: The zein test is based on solubilization by surfactants of a yellow corn (maize) protein that is normally insoluble in water unless it is denatured. The test gravimetrically determines the amount of zein dissolved by a surfactant solution. The solubility of zein in surfactant solutions correlates well with skin irritation or roughness caused by the surfactant. […] A higher zein number corresponds to a greater degree of irritation.
A 1% actives solution of each test surfactant (120 mL) is prepared. The pH of each solution is adjusted to about 7.0 with dilute aq. sulfuric acid or dilute aq. sodium hydroxide. The surfactant solution is warmed to 45° C. Zein powder (1.50 g) is added to each of three jars. Surfactant (25.0 g of 1% actives solution) is added to each jar, and to one empty jar to be used as a blank. The solutions are mixed using magnetic stirring on a temperature-controlled hotplate at 45° C. for 60 min. Each mixture is then centrifuged (2500 rpm, 15 min.), and undissolved zein powder is isolated by vacuum filtration. The residue is washed with deionized water and dried (55° C., 24 h) to constant weight. The amount of undissolved zein protein is found gravimetrically, and the results from three runs are averaged to give the % of solubilized zein and zein number.

[4] = Appearance and solubility of surfactants and of 1:1 molar blends with cationic surfactant; format: physicochemical; details: for Appearance, 0.1%: 1:1 molar blend of the anionic with Ammonyx Cetac 30, 0.1% actives; for Appearance, 0.1% / Appearance, 1.0%: ambient temperature; for Appearance, 1.0%: 1:1 molar blend of the anionic with Ammonyx Cetac 30, 1.0% actives
Method: (§1) The surfactant blends tested are prepared at a 1:1 molar ratio without any pH adjustment. Dilutions are made using deionized water to the desired actives level. Actives amounts are wt. % unless indicated otherwise. Appearances are reported at ambient temperature for samples prepared within the last 24 h.

[5] = Interfacial tension (IFT) against light mineral oil, synergy study with cationic surfactant; format: physicochemical; details: for IFT at 0.1% actives/mineral oil (blend): 1:1 molar blend of the anionic with Ammonyx Cetac 30, 0.1% actives, light mineral oil; for Calculated IFT (no synergy): expected IFT of the 1:1 molar blend with Ammonyx Cetac 30 by ideal mixing; for Synergy?: measured versus expected IFT of the 1:1 molar blend with Ammonyx Cetac 30; for IFT at 0.1% actives (single component): 0.1 wt. % active against light mineral oil, ambient temperature
Method: as §1
Interfacial tension (IFT) of all the individual components and their blends is measured at 0.1 wt. % active against light mineral oil at ambient temperature using a Kruss DSA-20 pendent drop tensiometer. The drop is blown out at 600 μL/min., and a video is recorded for 100 s. The video frames taken during the last 15 s are analyzed and used for the IFT calculation.
For blends having an IFT less than 0.5 mN/m, the IFT is determined using a spinning drop tensiometer (University of Texas 500) at 25° C. Oil density=0.877 g/cm^3 and surfactant density=0.997 g/cm^3 are used for the IFT calculation.
The expected IFT for a blend is calculated based on ideal mixing (non-synergistic) using the active component in each blend. The equation used is given as: Expected IFT=X*IFTa+(1−X)*IFTb where X is the actives % of component A, IFTa is the IFT of component A, and IFTb is the IFT of component B. If the measured IFT for a blend is less than the expected IFT, then the blend is synergistic. If the measured IFT for a blend is higher than the expected IFT, the system is antagonistic.

[6] = Adjuvant (anionic/nonionic) test sample, 342 ppm water
[7] = Anionic test sample, 342 ppm water
[8] = Nonionic test sample, 342 ppm water
[9] = corn (maize), 60 min, 1 % actives, pH 7
[10] = 1% actives solution, pH about 7.0, 45° C., 60 min, average of three runs
[11] = relative to 1% actives Stepanol WA-Extra PCK (SLS) control = 100, higher = more irritating, average of three runs

Molecule	Emulsion stability, mL separation, 1 h [1, 6]	Emulsion stability, mL separation, 24 h [1, 6]	Emulsion stability, mL separation, 1 h [1, 7]	Emulsion stability, mL separation, 24 h [1, 7]	Emulsion stability, mL separation, 1 h [1, 8]	Emulsion stability, mL separation, 24 h [1, 8]	Rating [1]	Estimated Phase Region as a Function of % Actives Level: Hexagonal [2]	Estimated Phase Region as a Function of % Actives Level: Isotropic Clear [2]	Estimated Phase Region as a Function of % Actives Level: Solid/gum/paste [2]	Appearance, 1.0% [4]	IFT at 0.1% actives/mineral oil (blend) [5]	Calculated IFT (no synergy) [5]	Synergy? [5]	IFT at 0.1% actives (single component) [5]	Estimated Phase Region as a Function of % Actives Level: Lamellar [2]	Solubility [4]	further results
CCCCCCCCCCCOS(=O)(=O)[O-].[Na+] [Sat. C11 alcohol Na sulfate, 1-Undecanol Sulfate, Sodium Salt]	0.2 mL	0.4 mL	0 mL	0 mL	0.2 mL	0.3 mL	good	33-43 % actives	0-33 % actives	43-100 % actives	separated	2.67 mN/m	8.35 mN/m	above average	16.34 mN/m	–	–	sol (solubility) [1, 6]: I; sol (solubility) ([1]; Anionic test sample: replaces anionic portion, paraquat concentrate in 342 ppm water, 30° C.): S; sol (solubility) ([1]; Nonionic test sample: replaces nonionic portion (with NaLAS), 342 ppm water): I; % solubilized zein [3, 9]: 52.9%; zein number [3, 9]: 107; Solubility ([4]; 1:1 molar blend of the anionic with Ammonyx Cetac 30): poor; Appearance, 0.1% [4]: separated
Undecylenic Alcohol, 1EO Ether Sulfate, Ammonium Salt [Unsat. 1EO NH4 sulfate]	0 mL	0 mL	–	0 mL	0 mL	–	good	31-58 % actives	0-31 % actives	91-100 % actives	–	0.60 mN/m	8.8 mN/m	very high	17.22 mN/m	58-91 % actives	–	–
1-Undecanol, 1EO Ether Sulfate, Ammonium Salt [Sat. 1EO NH4 sulfate]	–	–	0 mL	–	–	0 mL	good	26-58 % actives	0-26 % actives	85-100 % actives	–	0.85 mN/m	6.2 mN/m	high	12.40 mN/m	67-85 % actives	–	Estimated Phase Region as a Function of % Actives Level: Cubic [2]: 58-67 % actives
CCCCCCCCCCCCCCCC[N+](C)(C)C.[Cl-] [Ammonyx ® Cetac 30 (cetrimonium CI), cetrimonium CI]	–	–	–	–	–	–	–	–	–	–	–	–	–	–	0.35 mN/m and 0.38 mN/m	–	–	–
Undecylenic Alcohol, 3EO Ether Sulfate, Sodium Salt [Unsat. C11 alcohol 3EO Na sulfate]	0 mL	–	0 mL	0 mL	0.2 mL	0.5 mL	good	–	0-70 % actives	80-100 % actives	hazy liquid	0.17 mN/m	2.73 mN/m	high	5.10 mN/m	–	good	Estimated Phase Region as a Function of % Actives Level: Solid/isotropic [2]: 70-80 % actives; % solubilized zein [3, 10]: 16.5%; zein number [3, 11]: 31.6
Undecylenic Alcohol Sulfate, Sodium Salt [Unsat. C11 alcohol Na sulfate]	0 mL	0.25 mL	0 mL	0 mL	0.25 mL	0.4 mL	good	–	0-68 % actives	68-100 % actives	–	0.17 mN/m	3.16 mN/m	–	5.95 mN/m	–	good	% solubilized zein [3, 10]: 9.6%; zein number [3, 11]: 19.3; Synergy? ([5]; listed as Unsat C11 Na sulfate, Sulfate, Sodium Salt): very high; Synergy? ([5]; listed as unsaturated C11 alcohol sulfate, sodium salt, Sulfate, Sodium Salt): very high synergy
1-Undecanol, 3EO Ether Sulfate, Sodium Salt [Sat. C11 alcohol 3EO Na sulfate]	0 mL	–	0 mL	0 mL	0.1 mL	0.5 mL	good	33-58 % actives	0-33 % actives	82-100 % actives	separated	0.03 mN/m	4.58 mN/m	very high	8.80 mN/m	58-82 % actives	fair-poor	% solubilized zein [3]: 22.3%; zein number [3]: 44.9; Appearance, 0.1% [4]: hazy liquid
